According to paper PMC7955072 (Nature Communications, 2021):
≈ marks a conversion by molar mass, not a printed value. Where “and” joins values, the source holds several entries; their conditions need not be identical. Identical values can stand only once. Entries after “also recorded” stand apart in the source; their conditions may differ.

Experiments:
[1] = tested on: ScIleRS Thr571 to Tyr or Arg variants; assay: TSA, ScIleRS with Thr571 mutated to Tyr or Arg; format: binding, Saccharomyces cerevisiae
Procedure: The binding of RM-A to IleRS and the impact of intermediate analogue (Ile-AMS, MedChemExpress) or substrates on binding were evaluated by the fluorescence-based thermal shift assay (TSA). Ligand binding usually stabilizes the protein during the thermal denaturation process, and tighter binding usually causes a larger positive shift in the protein melting temperature (Tm)[45]. Briefly, mixtures with a final volume of 20 μL containing 150 mM NaCl, 100 mM HEPES (pH 7.5), 10% glycerol, 5 mM DTT, 2 μg of IleRS, 4× SYPRO orange fluorescence dye (Sigma-Aldrich) and different ligands (50 μM RM-A, 2 mM L-isoleucine, 2 mM ATP, or 50 μM Ile-AMS) were prepared in 96-well plates. The mixtures were incubated at 25 °C for 10 min and then heated from 25 °C to 95 °C at a rate of 1 °C/min. The fluorescence intensity was recorded by a StepOnePlus Real-Time PCR instrument (Life Technologies), and the maximums of the first derivatives were determined to calculate Tm values. Each Tm value was an average of triple assays.

Candida albicans = tested on: Candida albicans; set-up: method as in PMID 1429226; details: pH 3.0; cited from earlier work
osteoclasts (OCs) = details: cited from earlier work
[2] = tested on: ovarian cancer and prostate cancer growth; details: cited from earlier work
[3] = cited from earlier work
[4] = tested on: other AARS family members (LeuRS, ValRS); details: cited from earlier work
[5] = tested on: protein translation in rabbit reticulocyte lysate; assay: In vitro translation assay of luciferase mRNA in rabbit reticulocyte lysate; details: replicates I-III
Procedure: (§1) After incubating at 30 °C for 1.5 h, 2.5 μL of the reaction was transferred to a 384-well plate and mixed with 25 μL of Luciferase Assay Reagent (Promega). The luminescence was read on a FlexStation 3 multimode microplate reader (Molecular Devices).

[6] = tested on: protein translation in rabbit reticulocyte lysate; assay: Rescue of RM-A-inhibited in vitro translation by C-terminal truncated ScIleRS or its variants; details: for Luciferase luminescence, 200 nM RM-A: replicates I-III
Procedure: as §1

[7] = tested on: protein translation in rabbit reticulocyte lysate; assay: Rescue of RM-A-inhibited in vitro translation by C-terminal truncated human IleRS or its variants; details: 200 nM RM-A; 3 μM C-terminal truncated human IleRS R459A
Procedure: as §1

## CCCC[C@@]1(OC(=O)CCC(=O)O)CC[C@]2(CC[C@H](C)[C@@H](C/C=C(C)/C=C/[C@H](O)[C@@H](C)/C=C/C(=O)O)O2)O[C@H]1/C=C/C(C)=C/C(=O)O [RM-A, reveromycin A]
[1]
  binding of RM-A to ScIleRS variant (TSA): blocked the binding
Candida albicans
  MIC: 3 µM (≈ 1.98 µg/mL)
Osteoclasts (OCs)
  apoptosis of osteoclasts (OCs): potently induce the apoptosis
  more cytotoxic to OCs than to other types of cells, including OC progenitor cells: at least 100 times
[2]
  ovarian cancer and prostate cancer growth in vivo: inhibit
[3]
  bone loss in ovariectomized mice: suppress bone loss
[4]
  inhibition of other AARS family members (LeuRS, ValRS): insensitive; also recorded: does not show significant inhibition
[5]; RM-A Conc 2 nM
  Luminescence (in vitro protein translation): 190845 and 181490 and 183251
[5]; RM-A Conc 8 nM
  Luminescence (in vitro protein translation): 186149 and 190937 and 185903
[5]; RM-A Conc 20 nM
  Luminescence (in vitro protein translation): 175716 and 187102 and 188453
[5]; RM-A Conc 40 nM
  Luminescence (in vitro protein translation): 163497 and 184611 and 167689
[5]; RM-A Conc 80 nM
  Luminescence (in vitro protein translation): 7616.05 and 18001.9 and 7173.32
[5]; RM-A Conc 200 nM
  Luminescence (in vitro protein translation): 0 and 17.007 and 33.997
[5]; RM-A Conc 800 nM
  Luminescence (in vitro protein translation): 17.076 and 8.503 and 25.498
[5]; RM-A Conc 4000 nM
  Luminescence (in vitro protein translation): 0 (2×) and 50.995
[6]; 200 nM RM-A, 3 μM C-terminal truncated ScIleRS variant with 600GRKMSKSLK608 replaced by -GSGS-
  protein translation rescued: approximately 80%
[6]; 1 μM LeuRS (control)
  Luciferase luminescence, 200 nM RM-A: 27.35 and 44.205 and 52.747
[6]; 1 μM ScIleRS D527A
  Luciferase luminescence, 200 nM RM-A: 63.694 and 45.571 and 34.895
[6]; 1 μM ScIleRS F48A
  Luciferase luminescence, 200 nM RM-A: 235.026 and 174.094 and 121.866
[6]; 1 μM ScIleRS F48Y
  Luciferase luminescence, 200 nM RM-A: 90.991 and 72.914 and 115.108
[6]; 1 μM ScIleRS F191A
  Luciferase luminescence, 200 nM RM-A: 156.784 and 298.475 and 281.964
[6]; 1 μM ScIleRS P90A
  Luciferase luminescence, 200 nM RM-A: 35.934 and 81.508 and 9.028
[6]; 1 μM ScIleRS R454A
  Luciferase luminescence, 200 nM RM-A: 2038.19 and 7956.68 and 7915.89
[6]; 1 μM ScIleRS R460A
  Luciferase luminescence, 200 nM RM-A: 63.694 and 82.028 and 79.355
[6]; 1 μM ScIleRS R462A
  Luciferase luminescence, 200 nM RM-A: 219.125 and 149.005 and 122.71
[6]; 1 μM ScIleRS T572A
  Luciferase luminescence, 200 nM RM-A: 2721.39 and 8649.69 and 8296.21
[6]; 1 μM ScIleRS V89A
  Luciferase luminescence, 200 nM RM-A: 11067.8 and 10750 and 22533.8
[6]; 1 μM ScIleRS W402A
  Luciferase luminescence, 200 nM RM-A: 203.886 and 487.005 and 223.56
[6]; 1 μM ScIleRS W456A
  Luciferase luminescence, 200 nM RM-A: 72.793 and 72.914 and 17.634
[6]; 1 μM ScIleRS W529A
  Luciferase luminescence, 200 nM RM-A: 72.281 and 54.7 and 8.724
[6]; 1 μM ScIleRS Y571A
  Luciferase luminescence, 200 nM RM-A: 36.141 and 88.172 and 61.066
[6]; 1 μM ScIleRS del_KMSKS
  Luciferase luminescence, 200 nM RM-A: 1832.65 and 1584.88 and 8043.93
[6]; 3 μM C-terminal truncated ScIleRS Wild-type
  Luciferase luminescence, 200 nM RM-A: 109159 and 108773 and 113203
[6]; 3 μM LeuRS (control)
  Luciferase luminescence, 200 nM RM-A: 68.753
[6]; 3 μM ScIleRS D527A
  Luciferase luminescence, 200 nM RM-A: 8750.65 and 7744.02 and 12892
[6]; 3 μM ScIleRS F48A
  Luciferase luminescence, 200 nM RM-A: 2036.32 and 2422.33 and 1991.71
[6]; 3 μM ScIleRS F48Y
  Luciferase luminescence, 200 nM RM-A: 94.913 and 96.194 and 77.119
[6]; 3 μM ScIleRS F191A
  Luciferase luminescence, 200 nM RM-A: 75050.4 and 67335.6 and 51978.3
[6]; 3 μM ScIleRS P90A
  Luciferase luminescence, 200 nM RM-A: 99 and 117.664 and 109.334
[6]; 3 μM ScIleRS R454A
  Luciferase luminescence, 200 nM RM-A: 116437 and 113410 and 111486
[6]; 3 μM ScIleRS R460A
  Luciferase luminescence, 200 nM RM-A: 1567.03 and 1752.95 and 2655.99
[6]; 3 μM ScIleRS R462A
  Luciferase luminescence, 200 nM RM-A: 27718.3 and 25034.8 and 41655.4
[6]; 3 μM ScIleRS T572A
  Luciferase luminescence, 200 nM RM-A: 111134 and 106950 and 105037
[6]; 3 μM ScIleRS V89A
  Luciferase luminescence, 200 nM RM-A: 100692 and 113636 and 118400
[6]; 3 μM ScIleRS W402A
  Luciferase luminescence, 200 nM RM-A: 50779.2 and 51210.1 and 59141.2
[6]; 3 μM ScIleRS W449A
  Luciferase luminescence, 200 nM RM-A: 115488 and 110666 and 106192
[6]; 3 μM ScIleRS W456A
  Luciferase luminescence, 200 nM RM-A: 51.771 and 96.194 and 77.119
[6]; 3 μM ScIleRS W529A
  Luciferase luminescence, 200 nM RM-A: 60.194 and 17.229 and 34.495
[6]; 3 μM ScIleRS Y571A
  Luciferase luminescence, 200 nM RM-A: 11774.7 and 10611.3 and 9010.55
[6]; 3 μM ScIleRS del_KMSKS
  Luciferase luminescence, 200 nM RM-A: 101448 and 100214 and 102556
[7]
  protein translation rescued: about 1%
